From patent US6825209B2, “Compounds having unique CB1 receptor binding selectivity and methods for their production and use” (Research Triangle Institute, priority 2002, dated 2004)
Like-named read-outs stand apart in the source and are kept apart here.

Columns and labels:
human CB1 receptor = target: T1, human CB1 receptor (Homo sapiens, UniProt P21554); experiment: Radioligand displacement in human CB1 receptor-transfected cells (HEK-293); assay type: binding
T1 construct: expressed in transfected cells; host or cells: HEK-293
T1 sequence (P21554 whole entry): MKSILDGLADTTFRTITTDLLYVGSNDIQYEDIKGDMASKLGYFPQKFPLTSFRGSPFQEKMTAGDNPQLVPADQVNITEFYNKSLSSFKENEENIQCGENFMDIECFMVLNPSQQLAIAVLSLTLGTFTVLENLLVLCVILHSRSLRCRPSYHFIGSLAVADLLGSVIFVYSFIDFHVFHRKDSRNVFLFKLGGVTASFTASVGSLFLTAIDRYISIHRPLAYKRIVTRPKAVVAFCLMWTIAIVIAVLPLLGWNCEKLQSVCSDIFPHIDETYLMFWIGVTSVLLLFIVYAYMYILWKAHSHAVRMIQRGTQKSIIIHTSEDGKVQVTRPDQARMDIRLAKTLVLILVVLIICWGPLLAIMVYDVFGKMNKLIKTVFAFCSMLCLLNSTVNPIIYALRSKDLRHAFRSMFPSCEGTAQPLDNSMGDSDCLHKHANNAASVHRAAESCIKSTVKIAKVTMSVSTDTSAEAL
Description: Human CB1 receptor affinity. The alkyl amide analogs of the present invention were examined using transfected cell lines expressing the human CB1 receptor (Table 3).
Methods—binding assay in transfected cell lines. The methods used for performing binding assays in transfected cells expressing human CB1 or CB2 receptors are those used above. The CB1 receptor involved a HEK-293 expression system whereas the CB2 receptor was expressed in CHO-K1 cells. […] The incubations and separations were then performed as described above for rat brain membrane preparations.
(§1) Data analysis. Saturation and displacement data were analyzed by unweighted nonlinear regression of receptor binding data. For displacement studies, curve-fitting and IC50 calculation were done with GraphPad Prism (GraphPad Software, Inc., San Diego, Calif.), which fits the data to one and two-site models and compares the two fits statistically. A similar approach was used for the analysis of isotherm data for calculation of Kd's. A two-site fit was accepted only if it was statistically significant (p<0.05) and the following results were not observed:
(§2) IC50 values were then converted to Ki values by reported methods (Cheng and Prusoff, 1973). The statistical evaluation of curve-fitting data allowed for a non-arbitrary conclusion based on the displacement data.

CB1 receptor = target: T2, CB1 receptor (Rattus norvegicus, UniProt P20272); experiment: Radioligand displacement in whole rat brain (CB1) membrane preparations; assay type: binding; conditions: Table 4, parallel synthesis analogs; for Ki: n = 1, concentration assumes 100% yield; for Max. Disp. %, 3H-CP55940 / Max. Disp. %, 3H-SR141716A / Max. Disp. %, 3H-WIN55212-2: n = 1
T2 construct: Whole rat brains or dissected regions from live CD rats; tissue Charles River or Pel-Freez Biologicals; host or cells: whole rat brain (CD rats), P2 membrane
T2 sequence (P20272 whole entry): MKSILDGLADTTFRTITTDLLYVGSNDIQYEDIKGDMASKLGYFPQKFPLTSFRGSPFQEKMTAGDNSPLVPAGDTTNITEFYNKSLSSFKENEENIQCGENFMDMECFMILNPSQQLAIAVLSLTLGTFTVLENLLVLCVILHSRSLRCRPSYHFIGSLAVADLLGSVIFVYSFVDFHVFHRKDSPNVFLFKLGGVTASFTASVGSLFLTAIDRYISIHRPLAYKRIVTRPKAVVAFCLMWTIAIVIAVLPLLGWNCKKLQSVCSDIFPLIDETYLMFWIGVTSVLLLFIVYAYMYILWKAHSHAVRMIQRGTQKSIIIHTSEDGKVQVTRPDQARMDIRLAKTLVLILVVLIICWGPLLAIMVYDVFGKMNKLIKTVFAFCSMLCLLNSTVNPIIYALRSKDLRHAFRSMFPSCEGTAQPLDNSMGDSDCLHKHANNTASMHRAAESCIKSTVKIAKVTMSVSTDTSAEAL
Text: CB1 receptor affinity in rat brain.
Methods—membrane preparation from brain. The methods for tissue preparation are essentially those described by Devane et al. (1988) as modified by Compton et al. (1993) and later by Thomas et al. (1998). Whole rat brains or dissected regions from live CD rats from Charles River or Pel-Freez Biologicals (Rogers, Ark.), or human brain sections obtained from the National Disease Research Institute, were allowed to thaw to room temperature on ice. Both whole brain and dissected brain regions were used because different brain regions may express different cannabinoid receptor subtypes (Skaper et al., 1996; Thomas et al., 1998). The tissue was homogenized with a Kontes Potter-Elvehjem glass-Teflon grinding system (Fisher Scientific, Springfield, N.J.) in buffer 1 (320 mM sucrose, 2 mM EDTA, 5 mM MgCl2. The homogenate was centrifuged at 1600 g for 10 min. The supernatant was saved and combined with the two subsequent supernatants obtained from washing and 1600 g centrifugation of the P1 pellet. The combined supernatant fractions were then centrifuged at 39,000 g for 15 min. The P2 pellet was resuspended in 50 mL of buffer 2 (50 mM Tris.HCl, 2 mM EDTA, 5 mM MgCl2, pH 7.0), incubated at 37° C. for 10 min, then centrifuged at 23,000 g for 10 min. The P2 membrane was resuspended in 50 mL of buffer 2, incubated at 30° C. for 40 min, then centrifuged at 11,000 g for 15 min. The final wash-treated P2 pellet was resuspended in assay buffer 3 (50 mM Tris.HCl, 1 mM EDTA, 3 MM MgCl2, pH 7.4). Protein concentrations were determined by the method of Bradford (1976) using Coomassie brilliant blue dye (Bio-Rad, Richmond, Calif.) and BSA standards (bovine serum albumin, fatty acid free, Sigma Chemical Co., St. Louis, Mo.) prepared in assay buffer 3. The membrane preparation was divided into aliquots and stored at −80° C. For use in the binding assay, an aliquot of frozen membranes was thawed on ice and diluted to a concentration of ca. 0.2 mg/mL in assay buffer.
Methods—binding assay in brain membrane preparation. The methods for ligand binding are essentially those described by Devane et al. (1988) with the exception that we used a filtration assay. […] All cannabinoid analogs were prepared by suspension in buffer A from a 1-5 mg/mL ethanolic stock. Following incubation at 30° C. for 1 h, binding was terminated by vacuum filtration through pretreated filters in a 96-well sampling manifold (Millipore, Bedford, Mass.). Reaction vessels were washed at least 3 times with 1 mL of ice cold buffer B (50 mM Tris.HCl, 1 mg/mL BSA). The filter plates were air-dried and sealed on the bottom. Liquid scintillant was added to the wells and the top sealed. After incubating the plates in cocktail for at least 2 h, the radioactivity present was determined by liquid scintillation spectrometry. Assays were done in duplicate, and results represent the combined data of three to six independent experiments. All assays were performed in polypropylene test tubes. The GF/C glassfiber filter plates (Packard, Meriden, Conn.) were pretreated in buffer B for at least 1 h.
as §1, §2

[1] = displacement of 3H-CP55940, human CB1 transfected cells, 3H-CP55940, Table 5, parallel synthesis analogs, concentration assumes 100% yield
[2] = displacement of 3H-SR141716A, human CB1 transfected cells, 3H-SR141716A, Table 5, parallel synthesis analogs, concentration assumes 100% yield
[3] = displacement of 3H-WIN55212-2, human CB1 transfected cells, 3H-WIN55212-2, Table 5, parallel synthesis analogs, concentration assumes 100% yield
[4] = human CB1 transfected cells, 3H-CP55940, Table 5, parallel synthesis analogs
[5] = human CB1 transfected cells, 3H-SR141716A, Table 5, parallel synthesis analogs
[6] = human CB1 transfected cells, 3H-WIN55212-2, Table 5, parallel synthesis analogs
[7] = displacement of 3H-CP55940, whole rat brain, 3H-CP55940
[8] = displacement of 3H-SR141716A, whole rat brain, 3H-SR141716A
[9] = displacement of 3H-WIN55212-2, whole rat brain, 3H-WIN55212-2

Row | Compound | Ki (human CB1 receptor; [1]) [nM] | Ki (human CB1 receptor; [2]) [nM] | Ki (human CB1 receptor; [3]) [nM] | Max. Disp. %, 3H-CP55940 (human CB1 receptor; [4]) [%] | Max. Disp. %, 3H-SR141716A (human CB1 receptor; [5]) [%] | Max. Disp. %, 3H-WIN55212-2 (human CB1 receptor; [6]) [%] | Ki (CB1 receptor; [7]) [nM] | Ki (CB1 receptor; [8]) [nM] | Ki (CB1 receptor; [9]) [nM] | Max. Disp. %, 3H-CP55940 (CB1 receptor; whole rat brain, 3H-CP55940) [%] | Max. Disp. %, 3H-SR141716A (CB1 receptor; whole rat brain, 3H-SR141716A) [%] | Max. Disp. %, 3H-WIN55212-2 (CB1 receptor; whole rat brain, 3H-WIN55212-2) [%] | Max. Disp. %, 3H-CP55940 (human CB1 receptor) [%] | Max. Disp. %, 3H-SR141716A (human CB1 receptor) [%] | Max. Disp. %, 3H-WIN55212-2 (human CB1 receptor) [%] | Ki (human CB1 receptor; displacement of 3H-CP55940) [nM] | Ki (human CB1 receptor; displacement of 3H-SR141716A) [nM] | Ki (human CB1 receptor; displacement of 3H-WIN55212-2) [nM]
1 | CC(C)=CCC/C(C)=C/CNC(=O)c1nn(-c2ccc(Cl)cc2Cl)c(-c2ccc(Cl)cc2)c1C [AKS-10262-2] | 26.8 | 6.8 | 211 | 84.2 | 95.7 | 78.3 | 48.1 | 20.1 | 40.5 | 84.2 | 95.7 | 89.0 | – | – | – | – | – | –
2 | CCCCCCCCCCNC(=O)c1nn(-c2ccc(Cl)cc2Cl)c(-c2ccc(Cl)cc2)c1C [BT-1] | – | – | – | – | – | – | 92.8 | 45 | 1390 | 83.6 | 92.5 | 67.4 | 94.5 | 95.4 | 12.4 | 184 | 24.6 | 63.8
3 | Cc1c(C(=O)NC(C)CCCC(C)C)nn(-c2ccc(Cl)cc2Cl)c1-c1ccc(Cl)cc1 (stereo not shown) [AKS-10262-7] | – | – | – | – | – | – | 8.97 | 3.57 | 5.76 | 89.6 | 95.1 | 87.7 | 82.5 | 93.7 | 67.9 | 7.39 | 2.1 | 64.2
4 | CCCCCC(CC)NC(=O)c1nn(-c2ccc(Cl)cc2Cl)c(-c2ccc(Cl)cc2)c1C (stereo not shown) [AKS-10262-5] | 9.6 | 3.8 | 78.6 | 91.4 | 95.9 | 100 | 19.6 | 8.6 | 25.8 | 89.5 | 95.7 | 85.1 | – | – | – | – | – | –
5 | CCCCCCCCCC(C)NC(=O)c1nn(-c2ccc(Cl)cc2Cl)c(-c2ccc(Cl)cc2)c1C (stereo not shown) [AKS-10262-3] | 41.1 | 7 | 22.2 | 77.7 | 90.0 | 76.1 | 27.1 | 9.7 | 22.3 | 83.7 | 97.3 | 82.4 | – | – | – | – | – | –
6 | COc1ccc(CCNC(=O)c2nn(-c3ccc(Cl)cc3Cl)c(-c3ccc(Cl)cc3)c2C)cc1 [AM-29] | 56.9 | 16.1 | 74.5 | 80.3 | 96.3 | 100 | 92.6 | 40.7 | 24.7 | 78.8 | 95.1 | 82.7 | – | – | – | – | – | –
7 | CCCCCCC(C)NC(=O)c1nn(-c2ccc(Cl)cc2Cl)c(-c2ccc(Cl)cc2)c1C (stereo not shown) [AKS-10262-4] | – | – | – | – | – | – | 26.2 | 10.8 | 5.8 | 83.9 | 91.3 | 53.7 | 79.5 | 91.5 | 0.0 | 26.3 | 2.8 | –
8 | Cc1c(C(=O)NC(C)CCC(C)C)nn(-c2ccc(Cl)cc2Cl)c1-c1ccc(Cl)cc1 (stereo not shown) [AKS-10262-8] | 13.2 | 5.48 | 33.2 | 76.8 | 93.6 | 91.5 | 3.37 | 2.81 | 28.6 | 76.6 | 96.2 | 94.1 | – | – | – | – | – | –
9 | CCCCCCCCCCCNC(=O)c1nn(-c2ccc(Cl)cc2Cl)c(-c2ccc(Cl)cc2)c1C [BT-7] | 45.6 | 5.2 | 11.7 | 82.4 | 96.9 | 54.9 | 168 | 25.5 | 278 | 86.4 | 83.8 | 90.3 | – | – | – | – | – | –
10 | Cc1c(C(=O)NC(C)Cc2ccc(Cl)cc2)nn(-c2ccc(Cl)cc2Cl)c1-c1ccc(Cl)cc1 (stereo not shown) [AKS-10262-10] | 22.9 | 2.38 | 70.2 | 94.8 | 100 | 65.5 | 18.4 | 2.7 | 10.1 | – | 95.9 | 86.1 | – | – | – | – | – | –
11 | CCCCCCCCCCCCNC(=O)c1nn(-c2ccc(Cl)cc2Cl)c(-c2ccc(Cl)cc2)c1C [BT-2] | 176 | 43.5 | 13.8 | 79.5 | 89.8 | 31.4 | 109 | 53.7 | 238 | 82.6 | 95.6 | 56.5 | – | – | – | – | – | –
12 | CCC(C)CC(C)NC(=O)c1nn(-c2ccc(Cl)cc2Cl)c(-c2ccc(Cl)cc2)c1C (stereo not shown) [AKS-10262-6] | 9.4 | 2.2 | 23.9 | 86.5 | 100 | 78.7 | 9.6 | 2.3 | 13.7 | 91.4 | 96.3 | 89.9 | – | – | – | – | – | –
13 | Cc1c(C(=O)N2CCc3ccccc3C2)nn(-c2ccc(Cl)cc2Cl)c1-c1ccc(Cl)cc1 [AM-50] | 57.7 | 21 | 166 | 66.3 | 90.4 | 74.6 | 194 | 44.6 | 152 | 88.3 | 90.5 | 89.0 | – | – | – | – | – | –
